For assay [1] the following is noted: spinal anesthesia with bupivacaine; cited from earlier work.
Assay [2] in a line: reversal of the local anesthesia effect by applying ondansetrone to the same soft tissue area. In kind it is in vivo. Conditions: ondansetrone applied to the same area where local anesthesia is applied; dose according to patient and to type and dosage of local anesthetic. The text has this: Invention is about the reversal of the effect of the local anesthetic applied to the soft tissue, in a short time period by applying ondansetrone, which is a 5-hydroxytriptamine (5-HT3) antagonist, to the same area. And it is also about the removal of the problems encountered by local anesthesia.
Anesthesia implementations can be classified as local anesthesia, regional anesthesia and general anesthesia. Local anesthesia is the temporarily blockage of carrying the painful stimulations by nerve tracks. Only the surgery area is anesthetized with the local anesthesia. […] Local anesthesia effect can last from as few hours up to five hours. During that period, the problems that patient has to face because of being effected by local anesthesia are described in detail in the prior art section. The solution of these problems is reversal of the effect of the local anesthesia by the doctor in a short time after finishing the operation. Because of the effects of the local anesthetics can take hours to be removed by their selves. In the studies of mine about reversal of that local anesthesia effect, ondansetrone, which is a 5-hidroksitriptamin (5-HT3) antagonist, is implemented to the same area according to patient's situation (age, weight, sensitivity etc.) and to type and dosage of local anesthetic were local anesthesia is applied. […]

The conditions of assay [3]: cited from earlier work.

Take `CN1C2CCCC1CC(NC(=O)c1nn(C)c3ccccc13)C2` (stereo not shown) [granisetron]: the “reversal of the sensorial block” value in assay [1] is “accelerates the reversal of the sensorial block”.

Turning to `Cc1nccn1CC1CCc2c(c3ccccc3n2C)C1=O` (stereo not shown) [ondansetrone], the “reversal of the effect of the local anesthetic” value in assay [2] was “antagonizes the effect of the local anesthetic in a short time (a few minutes)”. For the same compound, the “regression of the sensorial block level” value in assay [3] (subarachnoid anesthesia by lidocaine) is on record as “accelerates the regression of the sensorial block level”. Also, the “effect on sensorial block level” value in assay [3] (subarachnoid anesthesia by ropivacaine) is listed as “no effect in sensorial block level”.

The record behind these values is patent US20160310467A1, “ONDANSETRONE TO REVERSAL OF THE SOFT TISSUE ANESTHESIA” (priority 2015, published 2016).
